Experimental data: ChEMBL document CHEMBL6092142, “Discovery and preclinical profile of YK-2168, a differentiated selective CDK9 inhibitor in clinical development” (Bioorg Med Chem Lett, 2024)
≈ marks a conversion by molar mass, not a printed value. One block for each compound: values may come before it. Calls of active or inactive are those of the source. No cut-off for these calls is given here.

Tests used:
[1] = Selectivity index, ratio of IC50 for inhibition of CDK1 (unknown origin) to IC50 for inhibition of CDK9 (unknown origin)
[2] = Selectivity index, ratio of IC50 for inhibition of CDK2 (unknown origin) to IC50 for inhibition of CDK9 (unknown origin)
[3] = test system: MV4-11; assay: Antiproliferative activity against human MV4-11 cells assessed as cell viability; type: functional, cell-based
[4] = biological target: Cyclin-dependent kinase 1 (Homo sapiens, UniProt P06493); assay: Inhibition of CDK1 (unknown origin)
[5] = biological target: Cyclin-dependent kinase 2 (Homo sapiens, UniProt P24941); assay: Inhibition of CDK2 (unknown origin)
[6] = biological target: Cyclin-dependent kinase 9 (Homo sapiens, UniProt P50750); assay: Inhibition of CDK9 (unknown origin)
[7] = Aqueous solubility of compound at pH 4; type: physicochemical
[8] = Volume of distribution in CD-1 mouse at 2 mg/kg, iv; type: ADME, organism-based; settings: in vivo
[9] = Clearance in CD-1 mouse at 2 mg/kg, iv; type: ADME, organism-based; settings: in vivo
[10] = Half life in CD-1 mouse at 2 mg/kg, iv; type: ADME, organism-based; settings: in vivo
[11] = AUC (0 to 24 hrs) in CD-1 mouse at 2 mg/kg, iv; type: ADME, organism-based; settings: in vivo
[12] = test system: MV4-11; assay: Antitumor activity against human MV4-11 cells xenografted in mouse assessed as tumor growth inhibition at 10 mg/kg, iv measured upto 28 days; type: functional; settings: MV4-11, 672 h, time <= 28 day, read-out: TGI
[13] = Toxicity in mouse assessed as change in body weight at 10 mg/kg, iv measured upto 28 days; type: organism-based; settings: in vivo, 672 h, time < 28 day
[14] = test system: MV4-11; assay: Antitumor activity against human MV4-11 cells xenografted in iv dosed mouse assessed as reduction in pol II CTD level in tumor measured upto 24 hrs by Western blot analysis; type: functional, organism-based; settings: dose 5-15 mg/kg
[15] = test system: MV4-11; assay: Antitumor activity against human MV4-11 cells xenografted in mouse assessed as reduction in MYC level in tumor at 5 to 15 mg/kg, iv measured upto 24 hrs by Western blot analysis; type: functional, organism-based; settings: dose 5-15 mg/kg
[16] = test system: MV4-11; assay: Antitumor activity against human MV4-11 cells xenografted in mouse assessed as reduction in Mcl1 level in tumor at 5 to 15 mg/kg, iv measured upto 24 hrs by Western blot analysis; type: functional, organism-based; settings: dose 5-15 mg/kg
[17] = test system: MV4-11; assay: Antitumor activity against human MV4-11 cells xenografted in mouse assessed as upregulation of caspase-3 level in tumor at 5 to 15 mg/kg, iv by Western blot analysis; type: functional, organism-based; settings: dose 5-15 mg/kg, time <= 24.0 hrs
[18] = Plasma protein binding in human; type: ADME, cell-free; settings: read-out: PPB (converted)
[19] = Permeability across apical to basolateral side in human Caco-2 cells; type: ADME, cell-based; settings: read-out: permeability
[20] = Permeability across basolateral to apical side in human Caco-2 cells; type: ADME, cell-based; settings: read-out: permeability
[21] = Efflux ratio of permeability basolateral to apical side over apical to basolateral side in human Caco-2 cells; type: ADME, cell-based
[22] = Metabolic stability in human hepatocytes assessed as half life; type: ADME, cell-based, Hepatocyte
[23] = Metabolic stability in monkey hepatocytes assessed as half life; type: ADME, cell-based, Macaca mulatta, Hepatocyte; settings: rhesus monkey
[24] = Metabolic stability in dog hepatocytes assessed as half life; type: ADME, cell-based, Canis lupus familiaris, Hepatocyte
[25] = Metabolic stability in rat hepatocytes assessed as half life; type: ADME, cell-based, Hepatocyte
[26] = Metabolic stability in mouse hepatocytes assessed as half life; type: ADME, cell-based, Hepatocyte
[27] = biological target: T1, Cytochrome P450 3A4 (Homo sapiens, UniProt P08684); assay: Inhibition of CYP3A4 (unknown origin); type: ADME
[28] = biological target: T2, Cytochrome P450 2D6 (Homo sapiens, UniProt P10635); assay: Inhibition of CYP2D6 (unknown origin); type: ADME
[29] = biological target: T3, Cytochrome P450 2C19 (Homo sapiens, UniProt P33261); assay: Inhibition of CYP2C19 (unknown origin); type: ADME
[30] = biological target: T4, Cytochrome P450 2C9 (Homo sapiens, UniProt P11712); assay: Inhibition of CYP2C9 (unknown origin); type: ADME
[31] = biological target: T5, Cytochrome P450 2C8 (Homo sapiens, UniProt P10632); assay: Inhibition of CYP2C8 (unknown origin); type: ADME
T5 sequence (P10632 whole entry): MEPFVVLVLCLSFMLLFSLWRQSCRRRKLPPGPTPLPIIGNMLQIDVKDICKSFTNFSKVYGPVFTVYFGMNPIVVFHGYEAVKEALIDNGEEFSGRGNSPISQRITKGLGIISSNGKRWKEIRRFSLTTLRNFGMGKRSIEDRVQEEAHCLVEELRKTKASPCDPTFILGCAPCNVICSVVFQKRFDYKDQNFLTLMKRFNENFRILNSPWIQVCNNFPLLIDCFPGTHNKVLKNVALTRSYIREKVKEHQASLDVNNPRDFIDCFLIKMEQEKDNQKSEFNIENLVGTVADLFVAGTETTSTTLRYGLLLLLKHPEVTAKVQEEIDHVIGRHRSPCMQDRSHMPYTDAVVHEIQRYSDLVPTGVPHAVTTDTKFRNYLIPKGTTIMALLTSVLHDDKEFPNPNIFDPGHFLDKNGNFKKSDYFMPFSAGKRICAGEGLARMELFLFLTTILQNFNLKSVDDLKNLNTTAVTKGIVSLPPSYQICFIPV

[32] = biological target: T6, Cytochrome P450 2B6 (Homo sapiens, UniProt P20813); assay: Inhibition of CYP2B6 (unknown origin); type: ADME
T6 sequence (P20813 whole entry): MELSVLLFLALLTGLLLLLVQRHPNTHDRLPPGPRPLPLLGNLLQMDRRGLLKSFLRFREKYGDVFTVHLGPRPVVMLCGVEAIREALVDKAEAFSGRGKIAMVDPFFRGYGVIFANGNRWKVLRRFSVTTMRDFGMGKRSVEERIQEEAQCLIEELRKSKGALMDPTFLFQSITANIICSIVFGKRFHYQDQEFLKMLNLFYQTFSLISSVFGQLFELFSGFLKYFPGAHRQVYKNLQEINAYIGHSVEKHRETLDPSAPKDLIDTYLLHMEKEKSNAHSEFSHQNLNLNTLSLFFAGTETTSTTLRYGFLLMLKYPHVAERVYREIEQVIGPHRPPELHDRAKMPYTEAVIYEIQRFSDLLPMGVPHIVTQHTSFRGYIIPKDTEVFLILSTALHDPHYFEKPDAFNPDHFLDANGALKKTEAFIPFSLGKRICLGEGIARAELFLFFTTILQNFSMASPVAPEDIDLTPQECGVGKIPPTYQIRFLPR

[33] = biological target: T7, Cytochrome P450 1A2 (Homo sapiens, UniProt P05177); assay: Inhibition of CYP1A2 (unknown origin); type: ADME
T7 sequence (P05177 whole entry): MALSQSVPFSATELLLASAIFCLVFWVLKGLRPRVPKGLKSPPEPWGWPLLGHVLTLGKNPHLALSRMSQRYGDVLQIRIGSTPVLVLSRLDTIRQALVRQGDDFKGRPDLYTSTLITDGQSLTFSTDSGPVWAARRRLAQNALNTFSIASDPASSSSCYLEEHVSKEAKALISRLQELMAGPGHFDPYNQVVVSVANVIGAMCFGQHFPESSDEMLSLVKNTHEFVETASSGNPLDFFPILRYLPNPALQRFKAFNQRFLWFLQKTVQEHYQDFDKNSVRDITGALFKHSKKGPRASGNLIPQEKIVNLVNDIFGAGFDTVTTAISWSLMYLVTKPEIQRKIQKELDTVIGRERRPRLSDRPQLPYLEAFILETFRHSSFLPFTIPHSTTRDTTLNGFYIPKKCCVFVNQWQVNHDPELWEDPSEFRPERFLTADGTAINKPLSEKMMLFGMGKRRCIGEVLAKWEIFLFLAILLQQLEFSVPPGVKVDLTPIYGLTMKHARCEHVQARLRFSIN

[34] = biological target: T1, Cytochrome P450 3A4; assay: Time dependent inhibition of CYP3A4 (unknown origin); type: ADME
[35] = biological target: T4, Cytochrome P450 2C9; assay: Time dependent inhibition of CYP2C9 (unknown origin); type: ADME
[36] = biological target: T3, Cytochrome P450 2C19; assay: Time dependent inhibition of CYP2C19 (unknown origin); type: ADME
[37] = biological target: T2, Cytochrome P450 2D6; assay: Time dependent inhibition of CYP2D6 (unknown origin); type: ADME
[38] = biological target: T5, Cytochrome P450 2C8; assay: Time dependent inhibition of CYP2C8 (unknown origin); type: ADME
[39] = biological target: T7, Cytochrome P450 1A2; assay: Time dependent inhibition of CYP1A2 (unknown origin); type: ADME
[40] = biological target: T1, Cytochrome P450 3A4; assay: Induction of CYP3A4 (unknown origin); type: ADME
[41] = test system: SNU-16; assay: Antitumor activity against human SNU-16 cells xenografted in iv dosed mouse assessed as tumor growth inhibition; type: functional, organism-based; settings: dose 5-15 mg/kg
[42] = Volume of distribution in Sprague-Dawley rat at 4 mg/kg, iv; type: ADME, organism-based; settings: in vivo
[43] = Volume of distribution in Beagle dog at 1 mg/kg, iv; type: ADME, organism-based, Canis lupus familiaris; settings: in vivo
[44] = Clearance in Sprague-Dawley rat at 4 mg/kg, iv; type: ADME, organism-based; settings: in vivo
[45] = Clearance in Beagle dog at 1 mg/kg, iv; type: ADME, organism-based, Canis lupus familiaris; settings: in vivo
[46] = Half life in Sprague-Dawley rat at 4 mg/kg, iv; type: ADME, organism-based; settings: in vivo
[47] = Half life in Beagle dog at 1 mg/kg, iv; type: ADME, organism-based, Canis lupus familiaris; settings: in vivo
[48] = AUC (0 to 24 hrs) in Sprague-Dawley rat at 4 mg/kg, iv; type: ADME, organism-based; settings: in vivo
[49] = AUC (0 to 24 hrs) in Beagle dog at 1 mg/kg, iv; type: ADME, organism-based, Canis lupus familiaris; settings: in vivo
[50] = biological target: Voltage-gated inwardly rectifying potassium channel KCNH2 (Homo sapiens, UniProt Q12809); assay: Inhibition of hERG upto 30 uM; type: toxicity
Voltage-gated inwardly rectifying potassium channel KCNH2, sequence (Q12809 whole entry): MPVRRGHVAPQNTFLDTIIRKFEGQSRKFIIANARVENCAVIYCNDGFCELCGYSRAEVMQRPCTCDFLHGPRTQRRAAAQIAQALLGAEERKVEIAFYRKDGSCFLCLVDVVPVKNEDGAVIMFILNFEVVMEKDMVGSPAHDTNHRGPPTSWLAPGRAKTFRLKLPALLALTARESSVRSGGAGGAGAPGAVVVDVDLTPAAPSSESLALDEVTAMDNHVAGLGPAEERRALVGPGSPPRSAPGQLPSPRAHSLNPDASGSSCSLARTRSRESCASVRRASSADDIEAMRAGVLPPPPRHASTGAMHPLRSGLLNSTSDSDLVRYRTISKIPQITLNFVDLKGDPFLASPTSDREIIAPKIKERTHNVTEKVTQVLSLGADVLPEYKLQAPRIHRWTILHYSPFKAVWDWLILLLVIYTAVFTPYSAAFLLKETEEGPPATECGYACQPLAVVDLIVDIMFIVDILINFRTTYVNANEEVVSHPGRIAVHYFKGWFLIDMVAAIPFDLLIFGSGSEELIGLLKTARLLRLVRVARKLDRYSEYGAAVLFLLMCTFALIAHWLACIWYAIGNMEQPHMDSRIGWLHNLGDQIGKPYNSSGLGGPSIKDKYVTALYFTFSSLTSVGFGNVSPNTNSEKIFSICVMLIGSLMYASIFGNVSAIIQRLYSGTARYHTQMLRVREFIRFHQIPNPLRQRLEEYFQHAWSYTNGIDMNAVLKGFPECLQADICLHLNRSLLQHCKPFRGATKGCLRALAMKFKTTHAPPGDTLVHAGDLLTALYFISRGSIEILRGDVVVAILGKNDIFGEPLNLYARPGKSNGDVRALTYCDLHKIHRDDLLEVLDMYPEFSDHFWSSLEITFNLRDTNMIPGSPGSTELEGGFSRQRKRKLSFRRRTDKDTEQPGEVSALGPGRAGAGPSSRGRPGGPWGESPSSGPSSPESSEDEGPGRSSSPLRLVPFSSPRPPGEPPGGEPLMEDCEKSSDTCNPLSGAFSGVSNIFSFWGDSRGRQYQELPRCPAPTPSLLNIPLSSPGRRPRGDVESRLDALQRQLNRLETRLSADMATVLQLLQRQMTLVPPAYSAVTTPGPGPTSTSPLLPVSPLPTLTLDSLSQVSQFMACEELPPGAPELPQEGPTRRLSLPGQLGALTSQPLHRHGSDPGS

T1 sequence (P08684 whole entry): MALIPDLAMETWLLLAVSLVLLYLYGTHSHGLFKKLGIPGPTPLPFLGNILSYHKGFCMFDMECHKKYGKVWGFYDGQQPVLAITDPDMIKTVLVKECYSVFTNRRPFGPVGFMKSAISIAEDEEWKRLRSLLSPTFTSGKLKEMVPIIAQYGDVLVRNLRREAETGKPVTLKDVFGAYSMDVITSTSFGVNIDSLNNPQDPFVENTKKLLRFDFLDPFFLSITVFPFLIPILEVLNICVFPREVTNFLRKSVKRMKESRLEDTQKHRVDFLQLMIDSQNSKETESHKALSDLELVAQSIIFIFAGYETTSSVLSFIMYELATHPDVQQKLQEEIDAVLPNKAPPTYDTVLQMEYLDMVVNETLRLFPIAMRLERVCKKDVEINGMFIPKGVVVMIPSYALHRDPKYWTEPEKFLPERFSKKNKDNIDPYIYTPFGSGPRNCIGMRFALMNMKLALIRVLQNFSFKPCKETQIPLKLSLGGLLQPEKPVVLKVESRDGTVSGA
T2 sequence (P10635 whole entry): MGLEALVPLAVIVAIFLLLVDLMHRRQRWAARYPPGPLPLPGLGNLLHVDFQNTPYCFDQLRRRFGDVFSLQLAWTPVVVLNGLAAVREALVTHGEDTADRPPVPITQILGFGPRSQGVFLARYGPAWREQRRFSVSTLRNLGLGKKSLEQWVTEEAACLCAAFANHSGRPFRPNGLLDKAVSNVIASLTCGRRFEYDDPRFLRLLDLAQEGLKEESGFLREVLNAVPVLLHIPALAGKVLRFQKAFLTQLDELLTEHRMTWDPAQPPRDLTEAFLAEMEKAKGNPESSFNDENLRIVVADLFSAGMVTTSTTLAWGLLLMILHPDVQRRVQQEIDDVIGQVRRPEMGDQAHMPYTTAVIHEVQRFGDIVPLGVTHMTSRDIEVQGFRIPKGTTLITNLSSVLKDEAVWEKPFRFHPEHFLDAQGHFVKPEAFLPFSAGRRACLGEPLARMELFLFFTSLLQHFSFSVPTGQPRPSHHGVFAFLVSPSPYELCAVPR
Cyclin-dependent kinase 1, sequence (P06493 whole entry): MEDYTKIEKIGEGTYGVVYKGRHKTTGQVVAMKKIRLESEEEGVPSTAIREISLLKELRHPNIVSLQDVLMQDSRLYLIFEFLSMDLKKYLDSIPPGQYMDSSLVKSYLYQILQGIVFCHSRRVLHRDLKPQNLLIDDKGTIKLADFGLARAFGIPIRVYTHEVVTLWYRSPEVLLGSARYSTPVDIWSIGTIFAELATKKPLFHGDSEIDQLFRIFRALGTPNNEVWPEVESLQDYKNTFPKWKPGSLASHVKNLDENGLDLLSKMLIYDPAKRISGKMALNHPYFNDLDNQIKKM
T4 sequence (P11712 whole entry): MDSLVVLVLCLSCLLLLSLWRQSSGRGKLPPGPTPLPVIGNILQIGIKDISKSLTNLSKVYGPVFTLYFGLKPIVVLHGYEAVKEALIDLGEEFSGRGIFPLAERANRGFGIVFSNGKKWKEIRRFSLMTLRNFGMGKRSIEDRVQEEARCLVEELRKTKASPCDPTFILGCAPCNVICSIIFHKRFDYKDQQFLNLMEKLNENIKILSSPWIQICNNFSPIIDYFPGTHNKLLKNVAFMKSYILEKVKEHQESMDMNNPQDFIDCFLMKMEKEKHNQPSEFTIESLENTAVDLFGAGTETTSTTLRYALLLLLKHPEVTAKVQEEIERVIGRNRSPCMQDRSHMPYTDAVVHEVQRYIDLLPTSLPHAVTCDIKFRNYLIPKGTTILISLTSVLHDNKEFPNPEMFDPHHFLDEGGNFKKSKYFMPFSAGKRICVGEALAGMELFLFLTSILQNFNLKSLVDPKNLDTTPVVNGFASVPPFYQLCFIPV
T3 sequence (P33261 whole entry): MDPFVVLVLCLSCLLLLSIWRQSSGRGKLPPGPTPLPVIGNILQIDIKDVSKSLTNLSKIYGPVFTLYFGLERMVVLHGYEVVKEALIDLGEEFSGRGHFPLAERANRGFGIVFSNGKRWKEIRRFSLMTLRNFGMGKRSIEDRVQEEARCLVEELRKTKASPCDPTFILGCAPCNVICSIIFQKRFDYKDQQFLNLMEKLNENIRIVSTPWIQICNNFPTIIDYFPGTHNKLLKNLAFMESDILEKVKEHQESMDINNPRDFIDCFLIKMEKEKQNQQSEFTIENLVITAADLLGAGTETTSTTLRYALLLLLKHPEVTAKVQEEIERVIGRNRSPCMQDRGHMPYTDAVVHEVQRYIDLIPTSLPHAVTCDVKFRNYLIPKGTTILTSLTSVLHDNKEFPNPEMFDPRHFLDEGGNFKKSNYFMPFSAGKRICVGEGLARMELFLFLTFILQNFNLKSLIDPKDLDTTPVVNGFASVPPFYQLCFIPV
Cyclin-dependent kinase 9, sequence (P50750 whole entry): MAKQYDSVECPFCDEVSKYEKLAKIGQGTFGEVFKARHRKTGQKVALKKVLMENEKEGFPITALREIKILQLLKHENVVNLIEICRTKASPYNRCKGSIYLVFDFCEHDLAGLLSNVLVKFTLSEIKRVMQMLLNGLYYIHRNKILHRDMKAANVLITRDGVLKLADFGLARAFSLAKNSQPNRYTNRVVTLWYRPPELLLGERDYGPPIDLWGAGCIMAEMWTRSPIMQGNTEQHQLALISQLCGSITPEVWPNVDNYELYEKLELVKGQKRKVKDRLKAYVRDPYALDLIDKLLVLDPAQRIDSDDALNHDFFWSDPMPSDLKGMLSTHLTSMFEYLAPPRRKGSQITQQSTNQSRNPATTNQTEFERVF

Structure (SMILES): CC(C)N1CCC(c2cc3c(-c4cnn(CC5CC5)c4)c(Cl)cnc3[nH]2)CC1
Ratio IC50 [1]: 73.3
Ratio IC50 [2]: 32.4
IC50 [3]: 94.8 nM

Structure (SMILES): COc1cc(F)ccc1-c1cc(Nc2cc(CS(C)(=N)=O)ccn2)ncc1F (configuration not stated) [ENITOCICLIB]
IC50 [4]: 250 nM
IC50 [5]: 231 nM
IC50 [3]: 92.4 nM
Vd ([8]; mouse, iv, 2 mg/kg): 1.27 L/kg
t1/2 ([10]; mouse, iv, 2 mg/kg): 26.4 min
AUC ([11]; mouse, iv, 2 mg/kg): 2686 nM·h
inhibition in vivo at 10 mg/kg [12]: 65%
Activity [13]: Non-toxic

Structure (SMILES): COCC(C)N1CCC(c2cc3c(-c4cnn(CC5CC5)c4)c(Cl)cnc3[nH]2)CC1 (configuration not stated)
Ratio IC50 [1]: 107
Ratio IC50 [2]: 41
IC50 [3]: 52 nM

Continued, in another order:

IC50 [4]: 428 nM
IC50 [5]: 267 nM
IC50 [6]: 5.9 nM
Ratio IC50 [1]: 72.5
Ratio IC50 [2]: 45.2
IC50 [3]: 53.4 nM
solubility [7]: 1500 µg/mL (≈ 4.75 mM)
Vd ([8]; CD-1, mouse, read-out: Vd): 10.2 L/kg
clearance [9]: 115 mL/min/kg
half-life ([10]; CD-1, mouse): 88.2 min
AUC(0-t) ([11]; CD-1, mouse): 0.916 µM·h
fraction unbound [18]: 0.711
Papp A→B [19]: 0.82 ×10⁻⁶ cm/s
Papp B→A [20]: 13.9 ×10⁻⁶ cm/s
efflux ratio [21]: 17
half-life [22]: > 280 min
half-life [23]: 264 min
half-life [24]: > 280 min
half-life [25]: 222 min
half-life [26]: 81.1 min
IC50 [27]: > 100 µM
IC50 [28]: > 100 µM
IC50 [29]: 96.2 µM
IC50 [30]: > 100 µM
IC50 [31]: > 100 µM
IC50 [32]: > 100 µM
IC50 [33]: 44.7 µM
TDI [34]: Not_active
TDI [35]: Not_active
TDI [36]: Not_active
TDI [37]: Not_active
TDI [38]: Not_active
TDI [39]: Not_active
Activity [40]: Not_active
Vd [42]: 11.2 L/kg
Vd [43]: 7.62 L/kg
clearance [44]: 52 mL/min/kg
clearance [45]: 29.1 mL/min/kg
half-life [46]: 192 min
half-life [47]: 238 min
AUC(0-t) [48]: 1250 ng·h/mL
AUC(0-t) [49]: 568 ng·h/mL
Structure (SMILES): Cn1cc(-c2c(Cl)cnc3[nH]c(C4CCNCC4)cc23)cn1
inhibition in vivo at 10 mg/kg [12]: 80%
Activity [13]: Non-toxic
Activity [14]: Dose-dependent-effect
Activity [15]: Active
Activity [16]: Active
Activity [17]: Time-dependent-effect
TGI [41]: Dose-dependent-effect; Partial Response Is Observed In 2/8 Mouse At 5 Mg/Kg Group, Partial Response Observed In 6/8 Mouse At 10 Mg/Kg And Partial Response Is Observed In 7/8 Mouse At 15 Mg/Kg Dose Group.
inhibition (INH) [50]: Not_active

Ratio IC50 [1]: 146
Ratio IC50 [2]: 22.1
IC50 [3]: 63.8 nM
Structure (SMILES): COCCN1CCC(c2cc3c(-c4cnn(CC5CC5)c4)c(Cl)cnc3[nH]2)CC1
